Data as given in PMC8951016, “Computational Design and Biological Evaluation of Analogs of Lupin Peptide P5 Endowed with Dual PCSK9/HMG-CoAR Inhibiting Activity” (Pharmaceutics, 2022).

How the values were obtained:
[1] = tested on: LDLR; parameters: method as in 3 sources, ref 48 = [48]; doi:10.1111/jfbc.12757; 48. Lammi C. Zanoni C. Arnoldi A. Aiello G. […] (P3), a peptide from lupin protein, absorbed by Caco-2 cells, modulates cholesterol metabolism in HepG2 cells via SREBP-1 activation J. Food B ||| ref 22 = [22]; doi:10.1016/j.jff.2017.02.009; 22. Zanoni C. Aiello G. Arnoldi A. Lammi C. Investigations on the hypocholesterolaemic activity of […] and LTFPGSAED, two peptides from lupin β-conglutin: Focus on LDLR and PCSK9 pathways J. Fu ||| ref 24 = [24]; PMID 33808034; doi:10.3390/nu13030863; 24. Lammi C. Aiello G. Bollati C. Li J. Bartolomei M. Ranaldi G. Ferruzza S. Fassi E.M.A. Grazioso G. Sambuy Y. Trans-Epithelial Transport, Metabolism, and Biological Activity Assessment of the Multi-; details: through activation of SREBP-2; cited from earlier work
[2] = tested on: LDLR on HepG2 cell surface; experiment: ICW, LDLR localized in cellular membranes of HepG2 (peptide alone); type: cell-based, human; details: 50 µM, vs control, average ± SD, four independent experiments in duplicate
Method: For the experiments, a total of 3 × 10^4 HepG2 cells/well were seeded in 96-well plates and treated with 4.0 μg/mL PCSK9-WT and 4.0 μg/mL PCSK9 + peptides P5 and/or P5 analogs (50 µM) and vehicle (H2O) for 2 h at 37 °C under 5% CO2 atmosphere. Thus, cells underwent to ICW assay following conditions already optimized. See Supplementary Materials for detailed information. […]
cLex Co., Nagano, Japan). The peptides (P5, P5-Best, P-H6A, and P5-S7A) were synthe-sized by the company GeneScript (Piscataway, NJ, USA) at >95% purity. The antibody against HMG-CoAR was bought from Abcam (Cambridge, UK). […]
HMG-CoAR Aactivity Assay. […] Subsequently, the samples were mixed and the absorbance at 340 nm read by the microplate reader Synergy H1 (Winooski, VT, USA) at time 0 and 10 min. The HMG-CoAR-dependent oxidation of NADPH and the inhibition properties of peptides were measured by absorbance reduction, which is directly proportional to enzyme activ- […]
In Vitro PCSK9-LDLR Binding Assay. […] The reaction was stopped with 2.0 M sulfuric acid and the absorbance at 450nm was measured using the Synergy H1 fluorescent plate reader […]

[3] = tested on: LDL uptake, HepG2 cells; details: cited from earlier work
Source text: In fact, in our previous paper, by applying a computational approach such as the one here applied, we designed and biologically evaluated two poly-imidazole derivatives endowed with PCSK9 inhibiting activity.

[4] = target: T1, PCSK9-LDLR (Homo sapiens, UniProt Q8NBP7); details: parent peptide; read-out: IC50, PCSK9-LDLR binding (P5); cited from earlier work
T1 construct: purchased CycLex Co., Nagano, Japan (CircuLex)
T1 sequence (Q8NBP7 153-692): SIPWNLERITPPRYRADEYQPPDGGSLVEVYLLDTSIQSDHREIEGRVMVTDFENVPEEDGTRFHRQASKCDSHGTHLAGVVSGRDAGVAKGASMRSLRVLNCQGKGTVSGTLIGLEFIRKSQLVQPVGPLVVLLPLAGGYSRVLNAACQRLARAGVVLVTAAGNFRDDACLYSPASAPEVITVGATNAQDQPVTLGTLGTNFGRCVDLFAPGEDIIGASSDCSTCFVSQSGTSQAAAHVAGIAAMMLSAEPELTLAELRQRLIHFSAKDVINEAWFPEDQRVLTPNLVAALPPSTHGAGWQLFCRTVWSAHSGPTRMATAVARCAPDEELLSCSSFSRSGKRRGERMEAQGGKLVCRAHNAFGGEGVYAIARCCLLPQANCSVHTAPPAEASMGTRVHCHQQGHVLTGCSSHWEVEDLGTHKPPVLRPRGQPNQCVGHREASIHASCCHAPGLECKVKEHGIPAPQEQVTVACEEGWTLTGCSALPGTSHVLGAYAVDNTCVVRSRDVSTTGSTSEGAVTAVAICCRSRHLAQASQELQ
T1 sequence (Q8NBP7 31-152 partner limits assumed): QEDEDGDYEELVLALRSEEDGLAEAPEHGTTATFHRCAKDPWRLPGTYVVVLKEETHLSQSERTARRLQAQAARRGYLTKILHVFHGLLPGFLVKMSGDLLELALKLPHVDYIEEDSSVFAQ

LILPKHSDAD [Peptide P5, natural peptide derived from a peptic lupin protein hydrolysate]
LDLR protein level in HepG2 (P5, earlier work, words) [1]: increases the LDLR protein level
increase of LDLR level in cellular membranes of HepG2 [2]: 153.6 ± 16.4%
uptake of extracellular LDL by HepG2 (P5, earlier work, words) [3]: improved ability of HepG2 cells to uptake extracellular LDL
IC50 [4]: 1600 nM
